A short description of data set [1]: The drug is tested on Z-029 corresponding to rat gut metagenome with ENA study accession number: PRJEB37062 and ENA sample accession number: ERS12561828 for biotransformation under anaerobic condition. The drug concentrations were measured over 9 timepoints collected between 0 and 24 hours of incubation by liquid-chromatography-coupled mass spectrometry (LC–MS). Conditions: 2 µM.

Data set [2] is described as follows: The drug is tested on Z-025 corresponding to rabbit gut metagenome with ENA study accession number: PRJEB37062 and ENA sample accession number: ERS12561824 for biotransformation under anaerobic condition. The drug concentrations were measured over 9 timepoints collected between 0 and 24 hours of incubation by liquid-chromatography-coupled mass spectrometry (LC–MS). Conditions: 2 µM.

Data set [3] can be described thus: The drug is tested on Z-022 corresponding to mouse gut metagenome with ENA study accession number: PRJEB37062 and ENA sample accession number: ERS12561821 for biotransformation under anaerobic condition. The drug concentrations were measured over 9 timepoints collected between 0 and 24 hours of incubation by liquid-chromatography-coupled mass spectrometry (LC–MS). Conditions: 2 µM.

The nature of data set [4]: The drug is tested on Z-018 corresponding to pig gut metagenome with ENA study accession number: PRJEB37062 and ENA sample accession number: ERS12561817 for biotransformation under anaerobic condition. The drug concentrations were measured over 9 timepoints collected between 0 and 24 hours of incubation by liquid-chromatography-coupled mass spectrometry (LC–MS). Particulars: 2 µM.

Data set [5] can be described thus: The drug is tested on Z-013 corresponding to rabbit gut metagenome with ENA study accession number: PRJEB37062 and ENA sample accession number: ERS12561813 for biotransformation under anaerobic condition. The drug concentrations were measured over 9 timepoints collected between 0 and 24 hours of incubation by liquid-chromatography-coupled mass spectrometry (LC–MS). Conditions: 2 µM.

The nature of data set [6]: The drug is tested on Z-012 corresponding to metagenome with ENA study accession number: PRJEB37062 and ENA sample accession number: ERS12561812 for biotransformation under anaerobic condition. The drug concentrations were measured over 9 timepoints collected between 0 and 24 hours of incubation by liquid-chromatography-coupled mass spectrometry (LC–MS). Conditions: 2 µM.

Data set [7] can be described thus: The drug is tested on Z-011 corresponding to mouse gut metagenome with ENA study accession number: PRJEB37062 and ENA sample accession number: ERS12561811 for biotransformation under anaerobic condition. The drug concentrations were measured over 9 timepoints collected between 0 and 24 hours of incubation by liquid-chromatography-coupled mass spectrometry (LC–MS). Particulars: 2 µM.

The nature of data set [8]: The drug is tested on Z-001 corresponding to mouse gut metagenome with ENA study accession number: PRJEB37062 and ENA sample accession number: ERS12561801 for biotransformation under anaerobic condition. The drug concentrations were measured over 9 timepoints collected between 0 and 24 hours of incubation by liquid-chromatography-coupled mass spectrometry (LC–MS). Conditions: 2 µM.

Data set [9] in a line: The drug is tested on WLS-310 corresponding to human gut metagenome with ENA study accession number: PRJEB37062 and ENA sample accession number: ERS12561785 for biotransformation under anaerobic condition. The drug concentrations were measured over 9 timepoints collected between 0 and 24 hours of incubation by liquid-chromatography-coupled mass spectrometry (LC–MS). Conditions: 2 µM.

Data set [10] is described as follows: The drug is tested on WLS-077 corresponding to human gut metagenome with ENA study accession number: PRJEB37062 and ENA sample accession number: ERS12561750 for biotransformation under anaerobic condition. The drug concentrations were measured over 9 timepoints collected between 0 and 24 hours of incubation by liquid-chromatography-coupled mass spectrometry (LC–MS). Particulars: 2 µM.

The conditions of data set [11]: human gut metagenome, 24 h, 2 µM.
The conditions of data set [12]: human gut metagenome, 24 h, 2 µM. This is another data set of the same source.
The conditions of data set [13]: human gut metagenome, 24 h, 2 µM. This is another data set of the same source.
The conditions of data set [14]: human gut metagenome, 24 h, 2 µM. This is another data set of the same source.
For data set [15] the following is noted: human gut metagenome, 24 h, 2 µM. The source holds these as a separate data set.
For data set [16] the following is noted: human gut metagenome, 24 h, 2 µM. The source holds these as a separate data set.
For data set [17] the following is noted: human gut metagenome, 24 h, 2 µM. This is another data set of the same source.
The conditions of data set [18]: human gut metagenome, 24 h, 2 µM. This is another data set of the same source.
The conditions of data set [19]: human gut metagenome, 24 h, 2 µM. The source holds these as a separate data set.
For data set [20] the following is noted: human gut metagenome, 24 h, 2 µM. The source holds these as a separate data set.

We go through six compounds from ChEMBL document CHEMBL5724914, “Linking interpersonal differences in gut microbiota composition and drug biotransformation activity” (2024).
Further: call rule not given here.

For `Br.COc1ccc2c(c1)[C@]13CCCC[C@@H]1[C@H](C2)N(C)CC3.O` [DEXTROMETHORPHAN HYDROBROMIDE], the “Bacterial Biotransformation” value in [1] is recorded as “Compound NOT metabolized”; in data set [2], “Compound metabolized”; in data set [3], “Compound NOT metabolized”; in data set [4] it was “Compound metabolized”; in data set [5], “Compound NOT metabolized”; in data set [6], “Compound NOT metabolized”. In addition, the “Bacterial Biotransformation” value in [7] is reported as “Compound NOT metabolized”; in [8], “Compound NOT metabolized”; in data set [9] it was “Compound metabolized”; in data set [10], “Compound metabolized”; in [11], “Compound metabolized”; in [12], “Compound metabolized”. Further, the “Bacterial Biotransformation” value in data set [13] is “Compound NOT metabolized”; in [14], “Compound metabolized”; in [15], “Compound NOT metabolized”; in data set [16], “Compound metabolized”; in data set [17] it was “Compound NOT metabolized”; in data set [18], “Compound NOT metabolized”. Moreover, the “Bacterial Biotransformation” value in [19] and in data set [20] was “Compound NOT metabolized” each time.
Take `COC1=C(OC)C(=O)C(CCCCCCCCCCO)=C(C)C1=O` [IDEBENONE]: the “Bacterial Biotransformation” value is reported as “Compound NOT metabolized” in [1]; “Compound metabolized” in data set [2]; “Compound NOT metabolized” in data set [3]; “Compound metabolized” in data set [4]; “Compound metabolized” in [5]; “Compound metabolized” in [6]. Moreover, the “Bacterial Biotransformation” value was “Compound metabolized” in data set [7]; “Compound NOT metabolized” in [8]; “Compound metabolized” in data set [9]; “Compound metabolized” in data set [10]; “Compound metabolized” in [13]; “Compound NOT metabolized” in data set [14]. Besides, the “Bacterial Biotransformation” value in [15], in data set [16], in [17], in data set [18], in [19] and in data set [20] was “Compound metabolized” throughout.
`Cc1cc2c(s1)Nc1ccccc1N=C2N1CCN(C)CC1` [OLANZAPINE]: the “Bacterial Biotransformation” value in data set [1] was “Compound NOT metabolized”; in data set [2], “Compound metabolized”; in [3], “Compound NOT metabolized”; in data set [4], “Compound NOT metabolized”; in data set [5], “Compound NOT metabolized”; in [6] it was “Compound NOT metabolized”. Moreover, the “Bacterial Biotransformation” value is on record as “Compound NOT metabolized” in data set [7]; “Compound metabolized” in [8]; “Compound NOT metabolized” in [9]; “Compound metabolized” in [10]; “Compound NOT metabolized” in [11]; “Compound metabolized” in data set [12]. Further, the “Bacterial Biotransformation” value is “Compound NOT metabolized” in [13]; “Compound NOT metabolized” in data set [14]; “Compound NOT metabolized” in data set [15]; “Compound NOT metabolized” in data set [16]; “Compound NOT metabolized” in [17]; “Compound metabolized” in data set [18]. For the same compound, the “Bacterial Biotransformation” value in [19] is recorded as “Compound metabolized”.
On to `CCc1oc2ccccc2c1C(=O)c1cc(Br)c(O)c(Br)c1` [BENZBROMARONE], for which the “Bacterial Biotransformation” value in data set [1] is on record as “Compound NOT metabolized”; in data set [2] it was “Compound NOT metabolized”; in data set [3], “Compound NOT metabolized”; in data set [4] it was “Compound metabolized”; in [5] it was “Compound NOT metabolized”; in data set [6] it was “Compound NOT metabolized”. Besides, the “Bacterial Biotransformation” value in data set [7] is “Compound metabolized”; in [8] it was “Compound NOT metabolized”; in data set [9] it was “Compound metabolized”; in [10], “Compound metabolized”; in data set [11] it was “Compound NOT metabolized”; in data set [12] it was “Compound metabolized”. Besides, the “Bacterial Biotransformation” value in data set [13] is listed as “Compound NOT metabolized”; in data set [14], “Compound NOT metabolized”; in data set [16] it was “Compound NOT metabolized”; in [17] it was “Compound metabolized”; in data set [18] it was “Compound NOT metabolized”; in data set [19], “Compound NOT metabolized”. The “Bacterial Biotransformation” value in data set [20] is given as “Compound NOT metabolized”.
Turning to `CC(=O)O[C@H]1C(=O)[C@@]2(C)[C@H]([C@H](OC(=O)c3ccccc3)[C@]3(O)C[C@H](OC(=O)[C@H](O)[C@@H](NC(=O)c4ccccc4)c4ccccc4)C(C)=C1C3(C)C)[C@]1(OC(C)=O)CO[C@@H]1C[C@@H]2O` [PACLITAXEL], the “Bacterial Biotransformation” value was “Compound NOT metabolized” in [1]; “Compound metabolized” in [2]; “Compound metabolized” in data set [3]; “Compound metabolized” in data set [4]; “Compound metabolized” in data set [5]; “Compound NOT metabolized” in [6]. For the same compound, the “Bacterial Biotransformation” value is “Compound metabolized” in [7]; “Compound NOT metabolized” in data set [8]; “Compound NOT metabolized” in [9]; “Compound metabolized” in [10]; “Compound NOT metabolized” in [11]; “Compound NOT metabolized” in data set [14]. The “Bacterial Biotransformation” value was “Compound metabolized” in data set [16]; “Compound NOT metabolized” in data set [17]; “Compound NOT metabolized” in data set [18]; “Compound NOT metabolized” in [19]; “Compound NOT metabolized” in [20].
`CC(C)C[C@H]1C(=O)N2CCC[C@H]2[C@]2(O)O[C@](NC(=O)[C@@H]3C=C4c5cccc6[nH]c(Br)c(c56)C[C@H]4N(C)C3)(C(C)C)C(=O)N12.CS(=O)(=O)O` [BROMOCRIPTINE MESYLATE]: the “Bacterial Biotransformation” value in data set [1], in data set [2], in data set [3], in data set [4], in data set [5] and in [6] was “Compound metabolized” each time. Moreover, the “Bacterial Biotransformation” value in data set [7], in data set [8], in data set [9], in [10], in [11] and in [12] was “Compound metabolized” each time. For the same compound, the “Bacterial Biotransformation” value in [13] was “Compound metabolized”; in data set [15] it was “Compound metabolized”; in [16], “Compound metabolized”; in data set [17] it was “Compound metabolized”; in data set [18], “Compound NOT metabolized”; in [19], “Compound NOT metabolized”. Also, in [20], the “Bacterial Biotransformation” value is “Compound NOT metabolized”.
